# Measurements taken from PubChem BioAssay (NCI).
#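 Tested at 5 concentrations; 48 h exposure; 96-well plates; endpoints linearly interpolated, else capped at highest concentration. Definition used: TGI = concentration required for complete inhibition of growth.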
# Legend:
# Assay in all cases: NCI tumour cell line growth inhibition, 48 h
# ACHN renal = test system: ACHN renal
# BT-549 breast = test system: BT-549 breast
# HCT-116 colon = test system: HCT-116 colon
# HL-60(TB) leukemia = test system: HL-60(TB) leukemia
# KM12 colon = test system: KM12 colon
# MALME-3M melanoma = test system: MALME-3M melanoma
# MOLT-4 leukemia = test system: MOLT-4 leukemia
# NCI-H460 lung = test system: NCI-H460 lung
# OVCAR-8 ovarian = test system: OVCAR-8 ovarian
# RPMI-8226 leukemia = test system: RPMI-8226 leukemia
# SK-MEL-5 melanoma = test system: SK-MEL-5 melanoma
# SNB-75 CNS = test system: SNB-75 CNS
# SW-620 colon = test system: SW-620 colon
# T-47D breast = test system: T-47D breast
SMILES,TGI (ACHN renal),TGI (BT-549 breast),TGI (HCT-116 colon),TGI (HL-60(TB) leukemia),TGI (KM12 colon),TGI (MALME-3M melanoma),TGI (MOLT-4 leukemia),TGI (NCI-H460 lung),TGI (OVCAR-8 ovarian),TGI (RPMI-8226 leukemia),TGI (SK-MEL-5 melanoma),TGI (SNB-75 CNS),TGI (SW-620 colon),TGI (T-47D breast)
CC1(C)C2CCC(O)(C2)C1N (stereo not given),> 100 µM,> 100 µM,> 100 µM,> 31.6 µM,> 100 µM,> 100 µM,> 100 µM,> 100 µM,> 100 µM,> 100 µM,> 100 µM,> 100 µM,> 100 µM,> 100 µM
O=C1C(S(=O)(=O)c2ccccc2)=C(CS(=O)(=O)c2ccccc2)[C@@H](OCc2ccccc2)[C@@H]1OCc1ccccc1,> 100 µM,27 µM,27 µM,43.9 µM,27.4 µM,36.1 µM,46.7 µM,50.5 µM,39.8 µM,36.1 µM,40.2 µM,> 100 µM,36.4 µM,> 100 µM
COc1cccc(-c2c(-c3ccccc3)[nH]c(C)c2C(=O)ONC(=O)c2ccccc2)c1,10.9 µM,18.7 µM,15 µM,4.37 µM,32.4 µM,28.4 µM,18.2 µM,11.4 µM,19.1 µM,29.3 µM,23.9 µM,18.9 µM,40.5 µM,23.9 µM
CC1=NN(c2nc(N)nc(/C(C#N)=C\c3cccc([N+](=O)[O-])c3)n2)C(C)(C)C1,> 51.4 µM,> 89.8 µM,> 42.1 µM,4.61 µM,> 48.1 µM,> 54.9 µM,> 66.5 µM,19.7 µM,54 µM,13.1 µM,> 42.6 µM,30.9 µM,> 51 µM,64.8 µM
CC1C(c2ccccc2O)c2cc3c(cc2OC1N1CCOCC1)OCO3 (stereo not given),> 100 µM,> 100 µM,75.9 µM,40 µM,91.6 µM,35.1 µM,83.7 µM,49.2 µM,> 100 µM,39.1 µM,62.3 µM,91.3 µM,> 100 µM,> 100 µM
Nc1ccc(Sc2c3ccccc3nc3ccccc23)cc1,28.3 µM,27.4 µM,26.1 µM,10.7 µM,40.4 µM,36.2 µM,27.1 µM,49.5 µM,28.6 µM,17.4 µM,30.6 µM,36.2 µM,39 µM,5.6 µM
CN(CCCn1ccnc1[N+](=O)[O-])CCCn1ccnc1[N+](=O)[O-],> 100 µM,> 100 µM,> 100 µM,> 100 µM,> 100 µM,> 100 µM,> 100 µM,> 100 µM,> 100 µM,> 100 µM,> 100 µM,> 100 µM,> 100 µM,> 100 µM
COC1CC(O[C@H]2CC[C@@]3(C)[C@@H](CC[C@]4(O)[C@@H]3CC[C@]3(C)[C@@H](C(C)=O)[C@H](OC(=O)CC(C)C)[C@@H](OC(=O)c5ccccc5)[C@@]34O)C2)OC(C)C1OC1CC(OC)C(OC2OC(C)C(O)C(OC)C2O)C(C)O1 (stereo not given in full),> 25 µM,> 25 µM,> 25 µM,> 25 µM,> 25 µM,> 25 µM,22.4 µM,> 25 µM,> 25 µM,14.5 µM,> 25 µM,> 25 µM,> 25 µM,> 25 µM
O=C1NC(=S)NC(=O)C1=C/C=C/c1ccc([N+](=O)[O-])cc1,39 µM,25 µM,37.2 µM,> 100 µM,> 100 µM,80.8 µM,16.6 µM,54.3 µM,47.6 µM,> 100 µM,42.5 µM,35.2 µM,18.9 µM,71.4 µM
CCCCCCCCOC(=O)c1cc([N+](=O)[O-])c(Sc2ncnc3nc[nH]c23)c([N+](=O)[O-])c1,10.2 µM,25.7 µM,5.35 µM,9.82 µM,18 µM,19.9 µM,16.2 µM,17.4 µM,10.1 µM,8.54 µM,18.4 µM,9.27 µM,8.31 µM,3.31 µM
